From article PMC11855478, “Bicyclic N,S-Acetals Containing Fused Cysteine-Amide System as New Heterocyclic Class Targeting Human Farnesyltransferase (FTase-h)” (International Journal of Molecular Sciences, 2025)

Tests used:
[1] = tested on: NCI-H522 non-small cell lung cancer cells; test: NCI cell proliferation, NCI-H522; type: cell-based, human; conditions: for inhibition at 10 µM: read-out: % Cancer cell growth Inhibition (NCI-H522); for Growth Percent: NCI-H522, 1.00E-5 Molar one dose
Description: (§1) 3.4. Cell Proliferation Assay
(§2) Selected compounds were tested on a panel of 60 human cancer cell lines at the National Cancer Institute (NCI), Germantown, MD, USA. The cytotoxicity studies were conducted using a 48 h exposure protocol using the sulfo-rhodamine B assay.

SF-295 (CNS Cancer) = test: NCI one dose, SF-295; type: cell-based, human; conditions: SF-295, 1.00E-5 Molar one dose
Description: as §1, §2

UACC-62 (Melanoma) = test: NCI one dose, UACC-62; type: cell-based, human; conditions: UACC-62, 1.00E-5 Molar one dose
Description: as §1, §2

HCT-116 (Colon Cancer) = test: NCI one dose, HCT-116; type: cell-based, human; conditions: HCT-116, 1.00E-5 Molar one dose
Description: as §1, §2

HCT-15 (Colon Cancer) = test: NCI one dose, HCT-15; type: cell-based, human; conditions: HCT-15, 1.00E-5 Molar one dose
Description: as §1, §2

ACHN (Renal Cancer) = test: NCI one dose, ACHN; type: cell-based, human; conditions: 1.00E-5 Molar one dose
Description: as §1, §2

COLO 205 (Colon Cancer) = test: NCI one dose, COLO 205; type: cell-based, human; conditions: COLO 205, 1.00E-5 Molar one dose
Description: as §1, §2

[2] = tested on: NCI-H322M (Non-Small Cell Lung Cancer); test: NCI one dose, NCI-H322M; type: cell-based, human; conditions: 1.00E-5 Molar one dose
Description: as §1, §2

[3] = molecular target: human farnesyltransferase (FTase) (Homo sapiens, UniProt P49354+P49356); test: FTase inhibitory assay (fluorescence, Dansyl-GCVLS); type: biochemical; conditions: inhibition of human FTase at 100 μM of tested compound; mean of two experiments
Description: With 40 new products in hand, the determination of their inhibitory activity on human farnesyl-transferase (FTase) in vitro was first undertaken. Dimethyl sulfoxide (DMSO) was used as the negative control, and Chaetomellic acid A was the positive reference in all assays. At the outset, and in order to select only significant results, products with an inhibitory power greater than 60% at an initial screening concentration of 100 µM were retained for the determination of their IC50 and, therefore, for further discussion. Moreover, given the number of products tested, they are grouped into three subfamilies on the basis of the degree of the sulphur atom oxidation (series of sulfides, series of sulfoxides, and series of sulfones), and the results obtained are grouped in Table 1, Table 2 and Table 3.
3.3. FTase Inhibitory Assay
Assays were realized in 96-well plates, prepared with a Biomek NKMC and a Biomek 3000 from Beckman Coulter, and read on a Wallac Victor fluorimeter from PerkinElmer. Per well, 20 µL of farnesyl pyrophosphate (10 μM) was added to 180 µL of a solution containing 2 µL of varied concentrations of potential inhibitors (dissolved in DMSO) and 178 μL of a solution composed of 10 μL of partially purified recombinant human FTase (15 µg mL^−1) and 1.0 µL of Dansyl-GCVLS peptide (in the following buffer: 5.6 mM DTT, 5.6 mM MgCl2, 12 μM ZnCl2 and 0.2% (w/v) octyl-β-D-glucopyranoside, 52 mM Tris/HCl, pH 7.5). Fluorescence was recorded for 15 min (0.7 s per well, 20 repeats) at 30 °C with an excitation filter at 340 nm and an emission filter of 486 nm. Each measurement was reproduced twice, in duplicate. The kinetic experiments were realized under the same conditions, either with FPP as varied substrate with a constant concentration of Dns-GCVLS of 2.5 μM or with Dns-GCVLS as varied substrate with a constant concentration of FPP of 10 μM. Non-linear regressions were performed using the Excel software.

SNB-19 (CNS Cancer) = test: NCI one dose, SNB-19; type: cell-based, human; conditions: SNB-19, 1.00E-5 Molar one dose
Description: as §1, §2

[4] = tested on: MDA-MB-468 breast cancer cells; test: NCI one dose, MDA-MB-468; type: cell-based, human; conditions: MDA-MB-468, 1.00E-5 Molar one dose
Description: as §1, §2

HT29 (Colon Cancer) = test: NCI one dose, HT29; type: cell-based, human; conditions: HT29, 1.00E-5 Molar one dose
Description: as §1, §2

[5] = tested on: HOP-62 (Non-Small Cell Lung Cancer); test: NCI one dose, HOP-62; type: cell-based, human; conditions: HOP-62, 1.00E-5 Molar one dose
Description: as §1, §2

LOX IMVI (Melanoma) = test: NCI one dose, LOX IMVI; type: cell-based, human; conditions: 1.00E-5 Molar one dose
Description: as §1, §2

SK-OV-3 (Ovarian Cancer) = test: NCI one dose, SK-OV-3; type: cell-based, human; conditions: SK-OV-3, 1.00E-5 Molar one dose
Description: as §1, §2

MCF7 (Breast Cancer) = test: NCI one dose, MCF7; type: cell-based, human; conditions: MCF7, 1.00E-5 Molar one dose
Description: as §1, §2

SNB-75 (CNS Cancer) = test: NCI one dose, SNB-75; type: cell-based, human; conditions: SNB-75, 1.00E-5 Molar one dose
Description: as §1, §2

[6] = tested on: EKVX (Non-Small Cell Lung Cancer); test: NCI one dose, EKVX; type: cell-based, human; conditions: 1.00E-5 Molar one dose
Description: as §1, §2

CCRF-CEM (Leukemia) = test: NCI one dose, CCRF-CEM; type: cell-based, human; conditions: 1.00E-5 Molar one dose
Description: as §1, §2

HS 578T (Breast Cancer) = test: NCI one dose, HS 578T; type: cell-based, human; conditions: 1.00E-5 Molar one dose
Description: as §1, §2

OVCAR-3 (Ovarian Cancer) = test: NCI one dose, OVCAR-3; type: cell-based, human; conditions: OVCAR-3, 1.00E-5 Molar one dose
Description: as §1, §2

OVCAR-5 (Ovarian Cancer) = test: NCI one dose, OVCAR-5; type: cell-based, human; conditions: OVCAR-5, 1.00E-5 Molar one dose
Description: as §1, §2

BT-549 (Breast Cancer) = test: NCI one dose, BT-549; type: cell-based, human; conditions: BT-549, 1.00E-5 Molar one dose
Description: as §1, §2

SK-MEL-2 (Melanoma) = test: NCI one dose, SK-MEL-2; type: cell-based, human; conditions: SK-MEL-2, 1.00E-5 Molar one dose
Description: as §1, §2

SK-MEL-28 (Melanoma) = test: NCI one dose, SK-MEL-28; type: cell-based, human; conditions: SK-MEL-28, 1.00E-5 Molar one dose
Description: as §1, §2

UACC-257 melanoma cells = test: NCI one dose, UACC-257; type: cell-based, human; conditions: UACC-257, 1.00E-5 Molar one dose
Description: as §1, §2

[7] = tested on: HOP-92 (Non-Small Cell Lung Cancer); test: NCI one dose, HOP-92; type: cell-based, human; conditions: HOP-92, 1.00E-5 Molar one dose
Description: as §1, §2

Row | SMILES | inhibition at 10 µM ([1]; Homo sapiens, NCI-H522) | Growth Percent [1] | Growth Percent (SF-295 (CNS Cancer)) | Growth Percent (UACC-62 (Melanoma)) | Growth Percent (HCT-116 (Colon Cancer)) | Growth Percent (HCT-15 (Colon Cancer)) | Growth Percent (ACHN (Renal Cancer)) | Growth Percent (COLO 205 (Colon Cancer)) | Growth Percent [2] | % FTI [3] | Growth Percent (SNB-19 (CNS Cancer)) | Growth Percent [4] | Growth Percent (HT29 (Colon Cancer)) | Growth Percent [5] | Growth Percent (LOX IMVI (Melanoma)) | Growth Percent (SK-OV-3 (Ovarian Cancer)) | Growth Percent (MCF7 (Breast Cancer)) | Growth Percent (SNB-75 (CNS Cancer)) | Growth Percent [6] | Growth Percent (CCRF-CEM (Leukemia)) | also measured
1 | COc1ccccc1CNC(=O)[C@@H]1CS[C@H]2c3ccccc3C(=O)N12 [4aG] | 30% | 69.93% | 100.33% | 103.22% | 105.23% | 107.09% | 109.98% | 111.29% | 100.55% | 21% | 107.13% | 101.62% | 77.01% | 104.24% | 99.95% | 107.78% | 102.38% | 98.49% | 106.79% | 101.17% | Growth Percent (HS 578T (Breast Cancer)): 96.02%; Growth Percent (OVCAR-3 (Ovarian Cancer)): 109.74%; Growth Percent (OVCAR-5 (Ovarian Cancer)): 112.94%; Growth Percent (BT-549 (Breast Cancer)): 110.45%; Growth Percent (SK-MEL-2 (Melanoma)): 96.50%; Growth Percent (SK-MEL-28 (Melanoma)): 116.98%; Growth Percent (UACC-257 melanoma cells): 74.73%; Growth Percent [7]: 102.49%
2 | COc1ccc(CNC(=O)[C@@H]2CS[C@H]3c4ccccc4C(=O)N23)cc1OC [4aI] | 36% | 63.65% | 101.16% | 98.01% | 98.84% | 109.55% | 105.56% | 111.84% | 101.37% | 62% | 104.62% | 102.27% | 80.71% | 98.51% | 99.42% | 104.05% | 99.04% | 95.63% | 114.59% | 94.08% | GI50 ([1]; Homo sapiens, NCI-H522): 20.8 µM; Growth Percent (HS 578T (Breast Cancer)): 98.06%; Growth Percent (OVCAR-3 (Ovarian Cancer)): 116.00%; Growth Percent (OVCAR-5 (Ovarian Cancer)): 102.57%; Growth Percent (BT-549 (Breast Cancer)): 108.27%; Growth Percent (SK-MEL-2 (Melanoma)): 80.08%; Growth Percent (SK-MEL-28 (Melanoma)): 110.57%; Growth Percent (UACC-257 melanoma cells): 75.20%; Growth Percent [7]: 93.36%
